Assay results published in publication PMC8621172, “Manipulating Estrogenic/Anti-Estrogenic Activity of Triphenylethylenes towards Development of Novel Anti-Neoplastic SERMs” (International Journal of Molecular Sciences, 2021).
pEC50: −log10 of the molar value. “And” between values parts separate entries of the source, which are not always exact repeats. Equal entries are not always repeated.

Columns and labels:
60 NCI tumor cell lines = assay: NCI-60 single-dose growth inhibition screen (SRB); type: cell-based, human; details: for inhibition at 10 µM: Homo sapiens, mean over 60 NCI tumor cell lines; for anti-proliferative activity (in words): 10 µM, NCI-60 panel and MCF-7
Description: The anti-proliferative effects of the novel analogs were tested in vitro by the National Cancer Institute (NCI) on a panel of 60 human tumor cell lines at 10 µM. Compounds that elicited mean growth inhibition ≥50% were selected by the NCI for 5-dose testing.
Compounds were submitted to the Developmental Therapeutics Program (DTP) of the National Cancer Institute (NCI). The program uses a panel of 60 human tumor cell lines representing nine tissue types, including leukemia, non-small cell lung cancer (NSCLC), melanoma, colon cancer, ovarian cancer, CNS cancer, renal cancer, prostate cancer, and breast cancer, to screen for potential new anti-cancer agents. […] Primary screening of synthesized compounds was performed by testing a single high dose of 10 µM in the full NCI-60 panel. The percent growth of treated cells relative to the no-drug control and relative to the time zero number of cells was measured, and a mean graph was provided. The percentage inhibition was then calculated by subtracting the values obtained from 100.
All compounds were subjected to the NCI in vitro disease-oriented human cells screening panel assay. The human tumor cell lines of the cancer-screening panel are grown in RPMI 1640 medium containing 5% fetal bovine serum and 2 mM L-glutamine. For a typical screening experiment, cells are inoculated into 96-well microtiter plates in 100 μL at plating densities ranging from 5000 to 40,000 cells/well depending on the doubling time of individual cell lines. After cell inoculation, the microtiter plates are incubated at 37 °C, 5% CO2, 95% air, and 100% relative humidity for 24 h prior to the addition of experimental drugs. After 24 h, two plates of each cell line are fixed in situ with TCA to represent a measurement of the cell population for each cell line at the time of drug addition. Experimental drugs are solubilized in dimethyl sulfoxide at 400-fold the desired final maximum test concentration and stored frozen prior to use. At the time of drug addition, an aliquot of frozen concentrate is thawed and diluted to twice the desired final maximum test concentration with complete medium containing 50 μg/mL gentamicin. Additional four, 10-fold, or ½ log serial dilutions are made to provide a total of five drug concentrations plus control. Aliquots of 100 μL of these different drug dilutions are added to the appropriate microtiter wells already containing 100 μL of medium, resulting in the required final drug concentrations. Following drug addition, the plates are incubated for an additional 48 h at 37 °C, 5% CO2, 95% air, and 100% relative humidity. For adherent cells, the assay is terminated by the addition of cold TCA. Cells are fixed in situ by the gentle addition of 50 μL of cold 50% (w/v) TCA (final concentration, 10% TCA) and incubated for 60 min at 4 °C. The supernatant is discarded, and the plates are washed five times with tap water and air-dried. Sulforhodamine B (SRB) solution (100 μL) at 0.4% (w/v) in 1% acetic acid is added to each well, and plates are incubated for 10 min at room temperature. After staining, unbound dye is removed by washing five times with 1% acetic acid, and the plates are air-dried. Bound stain is subsequently solubilized with a 10 mM trizma base, and the absorbance is read on an automated plate reader at a wavelength of 515 nm. For suspension cells, the methodology is the same except that the assay is terminated by fixing settled cells at the bottom of the wells by gently adding 50 μL of 80% TCA (final concentration, 16% TCA). Compounds are screened at a dose of 10 µM, hits showing mean growth inhibition over 60 cell lines >50% are escalated for 5-dose screening assay.

human ERα = biological target: T1, human ERα (Homo sapiens, UniProt P03372); assay: Yeast estrogen screen (YES) assay, agonistic activity (β-galactosidase reporter); type: cell-based; details: triplicates; for Estrogenic Activity (relative β-galactosidase activity): compounds at 1 µM, compared to DMSO (set as 1)
T1 construct: host or cells: Saccharomyces cerevisiae
T1 sequence (P03372 1-595): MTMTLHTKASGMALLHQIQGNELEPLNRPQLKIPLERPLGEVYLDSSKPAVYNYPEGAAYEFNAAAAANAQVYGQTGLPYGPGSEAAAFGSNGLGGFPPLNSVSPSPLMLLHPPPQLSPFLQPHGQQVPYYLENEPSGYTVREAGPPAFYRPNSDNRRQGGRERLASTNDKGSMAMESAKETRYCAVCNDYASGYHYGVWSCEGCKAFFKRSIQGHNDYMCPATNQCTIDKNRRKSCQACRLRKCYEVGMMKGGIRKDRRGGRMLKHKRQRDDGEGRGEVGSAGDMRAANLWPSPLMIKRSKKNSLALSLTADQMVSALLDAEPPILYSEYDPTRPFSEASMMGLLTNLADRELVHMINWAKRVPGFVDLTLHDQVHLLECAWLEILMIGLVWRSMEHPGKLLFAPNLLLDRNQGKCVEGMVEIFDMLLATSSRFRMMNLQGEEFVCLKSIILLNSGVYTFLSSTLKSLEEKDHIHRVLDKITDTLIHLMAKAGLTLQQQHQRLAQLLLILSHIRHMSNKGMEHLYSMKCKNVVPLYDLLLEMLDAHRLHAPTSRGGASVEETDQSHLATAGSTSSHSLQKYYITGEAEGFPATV
Description: All synthesized compounds were tested for their relative activity in β-galactosidase in a yeast estrogen screen (YES) assay. Compounds were tested for their relative estrogenic/anti-estrogenic activities in comparison to positive and negative controls, respectively. YES assay is a gene reporter assay where the DNA sequence of human ERα is integrated into the yeast genome completed with an expression plasmid carrying estrogen response elements (ERE) in the promoter controlling the expression of the reporter gene lacZ (encoding the enzyme β-galactosidase). In the presence of estrogenic compounds, β-galactosidase is synthesized and secreted into the medium, where it converts the chromogenic substrate chlorophenol red-β-D-galactopyranoside (CRPG) from a yellow to a red product, whose absorbance is measured. […] Therefore, we decided to test the novel compounds in an organ-specific in vitro model using the human Ishikawa endometrial adenocarcinoma cell line.
All synthesized compounds were tested for their relative β-galactosidase activity in a yeast estrogen screen (YES) assay at a concentration of 1 µM using DMSO as control (set as 1).
The yeast estrogen receptor assay was supplied by Dr. J.P. Sumpter (Brunel University, Uxbridge, UK) and was used to determine the relative transactivation activity of the human ERα as formerly described. Briefly, Saccharomyces cerevisiae stably transfected with a human ERα and an estrogen-responsive element fused to the reporter gene lacZ encoding for β-galactosidase were treated with the test substances for about 48 h. The β-galactosidase enzymatic activity was measured in a colorimetric assay using a microplate photometer by hydrolysis of the substrate chlorophenol red β-D-galactopyranoside (Roche Diagnostics, Mannheim, Germany), which leads to the formation of chlorophenol red. This can be measured as an increased absorption at 540 nm. All compounds were diluted in DMSO. […] All compounds were tested in technical quadruplicates and biological triplicates. Statistical analysis was performed by analysis of variance (ANOVA) and Tukey’s post-hoc test with the significance level of p < 0.05.

Structure (SMILES): COc1cc(C(C)=C(c2ccc(Cl)cc2)c2ccc(OCCN3CCCCCC3)cc2)ccc1F [Compound 26, E/Z-1-(2-{4-[1-(4-Chlorophenyl)-2-(4-fluoro-3-methoxyphenyl)-propenyl]-phenoxy}-ethyl)-azepane]
- inhibition at 10 µM (60 NCI tumor cell lines): 28.3%
- Estrogenic Activity (relative β-galactosidase activity) (human ERα): 1.78 ± 0.64

Structure (SMILES): COc1ccc(C(C)=C(c2ccc(Cl)cc2)c2ccc(OCCN3CCCCC3)cc2)cc1 [Compound 12, E/Z-1-(2-{4-[1-(4-Chloro-phenyl)-2-(4-methoxy-phenyl)-propenyl]-phenoxy}-ethyl)-piperidine]
- inhibition at 10 µM (60 NCI tumor cell lines): 55.2%
- Estrogenic Activity (relative β-galactosidase activity) (human ERα): 3.65 ± 0.70

Structure (SMILES): COc1ccc(C(C)=C(c2ccc(Cl)cc2)c2ccc(OCCN3CCCC3)cc2)cc1F [Compound 16, E/Z-1-(2-{4-[1-(4-Chlorophenyl)-2-(3-fluoro-4-methoxyphenyl)-propenyl]-phenoxy}-ethyl)-pyrrolidine]
- inhibition at 10 µM (60 NCI tumor cell lines): 77.2%
- Estrogenic Activity (relative β-galactosidase activity) (human ERα): 2.19 ± 0.71

Structure (SMILES): COc1ccc(C(C)=C(c2ccc(Cl)cc2)c2ccc(OCCN3CCCCCC3)cc2)cc1 [Compound 14, E/Z-1-(2-{4-[1-(4-Chloro-phenyl)-2-(4-methoxy-phenyl)-propenyl]-phenoxy}-ethyl)-azepane]
- inhibition at 10 µM (60 NCI tumor cell lines): 47.3%
- Estrogenic Activity (relative β-galactosidase activity) (human ERα): 1.80 ± 0.09

Structure (SMILES): COc1ccc(C(C)=C(c2ccc(Cl)cc2)c2ccc(OCCCN(C)C)cc2)cc1 [Compound 10, E/Z-(3-{4-[1-(4-Chloro-phenyl)-2-(4-methoxy-phenyl)-propenyl]-phenoxy}-propyl)-dimethyl-amine]
- inhibition at 10 µM (60 NCI tumor cell lines): 33.4%
- Estrogenic Activity (relative β-galactosidase activity) (human ERα): 11.61 and 11.61 ± 0.99

Structure (SMILES): COc1cc(C(C)=C(c2ccc(Cl)cc2)c2ccc(OCCN(C)C)cc2)ccc1F [Compound 27, E/Z-(2-{4-[1-(4-Chlorophenyl)-2-(4-fluoro-3-methoxyphenyl)-propenyl]-phenoxy}-ethyl)-dimethyl-amine]
- inhibition at 10 µM (60 NCI tumor cell lines): 47.2%
- Estrogenic Activity (relative β-galactosidase activity) (human ERα): 1.15 ± 0.17

Structure (SMILES): CC(=C(c1ccc(Cl)cc1)c1ccc(OCCN2CCCC2)cc1)c1ccccc1 [Compound 6, E/Z-1-(2-{4-[1-(4-Chloro-phenyl)-2-phenyl-propenyl]-phenoxy}-ethyl)-pyrrolidine]
- inhibition at 10 µM (60 NCI tumor cell lines): 37.8%
- Estrogenic Activity (relative β-galactosidase activity) (human ERα): 2.88 ± 0.89

Structure (SMILES): COc1ccc(C(C)=C(c2ccc(Cl)cc2)c2ccc(OCCN(C)C)cc2)cc1F [Compound 20, E/Z-(2-{4-[1-(4-Chlorophenyl)-2-(3-fluoro-4-methoxyphenyl)-propenyl]-phenoxy}-ethyl)-dimethyl-amine]
- inhibition at 10 µM (60 NCI tumor cell lines): 47%
- Estrogenic Activity (relative β-galactosidase activity) (human ERα): 2.40 ± 0.64

Structure (SMILES): COc1ccc(C(C)=C(c2ccc(O)cc2)c2ccc(Cl)cc2)cc1F [Compound 3, E/Z-4-[1-(4-Chlorophenyl)-2-(3-fluoro-4-methoxyphenyl)propenyl]-phenol]
- anti-proliferative activity (in words) (60 NCI tumor cell lines): lacked anti-proliferative activity
- inhibition at 10 µM (60 NCI tumor cell lines): 2.34%
- pEC50 (human ERα; YES assay): 7.40
- Estrogenic Activity (relative β-galactosidase activity) (human ERα): 12.83 ± 2.72

Structure (SMILES): CC(=C(c1ccc(Cl)cc1)c1ccc(OCCN2CCOCC2)cc1)c1ccccc1 [Compound 8, E/Z-4-(2-{4-[1-(4-Chloro-phenyl)-2-phenyl-propenyl]-phenoxy}-ethyl)-morpholine]
- anti-proliferative activity (in words) (60 NCI tumor cell lines): lacked anti-proliferative activity
- inhibition at 10 µM (60 NCI tumor cell lines): 9.4%
- Estrogenic Activity (relative β-galactosidase activity) (human ERα): 1.85 ± 0.11
